The nature of series [1]: Compound was evaluated for the partition coefficient in octanol/water. Format: physicochemical.
Series [2] in a line: Compound was evaluated for the partition coefficient in octanol/water (1-octanol / 10 mM phosphate buffer at pH 7.4). The class given is physicochemical.

Molecules are shown by their SMILES.

For 4 compounds, K results are on record in ChEMBL document CHEMBL1123380, “Spin trapping of superoxide and hydroxyl radicals with substituted pyrroline 1-oxides” (J Med Chem, 1986).

Consider `CCCC(CCC)(CCC=O)[N+](=O)[O-]`, for which, in series [1], the K came out at 4.9.
On to `CC1(C)CCC=[N+]1[O-]`, for which the K in series [2] is listed as 0.02.
`O=CCCC1([N+](=O)[O-])CCCC1` gave a K in series [1] of 0.8.
Compound `CCCCC(C)(CCC=O)[N+](=O)[O-]` (centres undefined) came in with a K in series [1] of 1.1.
